Assays:
[1] = system: U-IEO-derived hair cell-like cells; assay: Patch clamp of hair cell-like cells from U well plate inner ear organoids, with or without cisplatin; assay type: cell-based, mouse
Experimental: (§1) A 10 mV nominal increment was made at the holding potential of −84 mV covering the range of −124 to +54 mV for a duration of […], before returning to a constant potential of −44 mV (tail current, 50 ms). The bath solution was prepared using L-15 media (Gibco) and the pipette solution was prepared using 150 mM KCl, 5 mM HEPES, 0.1 mM CaCl2, 5 mM EGTA, 3.5 mM Mg ATP, pH 7.3 (KOH), and Osmolality 288 mmol/kg. To obtain damaged IEO, IEO was treated with […] of cisplatin on day 30 for 48 hours (100 mg cisplatin/0.33 mL (D. W) a 3 μL cisplatin +20 mL medium). To apply the IEO for patch clamp, the IEO was treated with trypsin for 5 minutes and the detached cells were detected with a patch pipette (n=4). Whole cells of IEO-derived hair cell-like cells were subjected to close-seal technique, in order to compare the electrophysiology of IEOS formed in microhole chips (hereinafter “M-IEO”) and IEOs formed in U well plates (hereinafter “U-IEO”) using patch clamp assays (FIG. 5A). In the 3D structure of the IEO, cells were isolated using single cell trypsinization. First, the morphology of mouse organs of Corti hair cells, mESC (R1/E), and IEO-derived hair cell-like cells was confirmed (FIG. 5B). […]

[2] = system: M-IEO-derived hair cell-like cells; assay: Patch clamp of hair cell-like cells from microhole chip inner ear organoids, with or without cisplatin; assay type: cell-based, mouse; conditions: 68 pA−20 pA at 60 mV (so in the source)
Experimental: as §1

## N.N.[Cl][Pt][Cl] [cisplatin]
[1]; 3-day culture with or without cisplatin
  electrophysiology after culture with cisplatin: significantly reduced electrophysiology
[1]; U-IEO, 138 pA−28 pA (so in the source)
  loss of current, without versus with cisplatin: 110 pA
[2]
  loss of current, without versus with cisplatin: 48 pA

From patent US20250002846A1, “METHOD FOR CONSTRUCTION OF INNER EAR ORGANOID” (INDUSTRY FOUNDATION OF CHONNAM NATIONAL UNIVERSITY, priority 2022, published 2025)
